Measurements published in patent publication US12030824B2 (priority 2016, dated 2024).
“Also recorded” adds a separate entry of the source.

What was measured:
[1] = tested on: cabbage aphid Brevicoryne brassicae; assay: Control of aphids on cabbage, single spray; format: in vivo; conditions: white flies on tomato and cabbage aphids on cabbage
White flies = assay: Control of white flies on greenhouse tomatoes with OPB+microbial strains; format: in vivo, Bremia spp.; conditions: single spray
[2] = tested on: root knot nematode, Meloidgyne javanica; assay: Split-root greenhouse trial on tomato with root knot nematode (Nemlab); format: in vivo; conditions: for overall effectiveness in nematode control: split-root greenhouse trial; for Number of Eggs/Root System, Pot 1—nem. alone (of split root system) / Numbers of female nematodes/root, Pot 1—nem. alone (of split root system) / Galling Index, Pot 1—nem. alone (of split root system) / Number of Eggs/Root System, Pot 2—agent + nematode (of split root system) / Numbers of female nematodes/root, Pot 2—agent + nematode (of split root system) / Galling Index, Pot 2—agent + nematode (of split root system): tomato split root; for Number of Eggs/Root System, Pot 1—nem. alone (of split root system) / Numbers of female nematodes/root, Pot 1—nem. alone (of split root system): root half with M. javanica only; for Galling Index, Pot 1—nem. alone (of split root system): root half with M. javanica only (systemic), scale 0 no galls to 5 100% of roots with galls; for Number of Eggs/Root System, Pot 2—agent + nematode (of split root system) / Numbers of female nematodes/root, Pot 2—agent + nematode (of split root system) / Galling Index, Pot 2—agent + nematode (of split root system): root half with M. javanica plus agent; for Galling Index, Pot 2—agent + nematode (of split root system): scale 0 no galls to 5 100%
Description: Comprehensive evaluation of the strains in greenhouse trials. […] It is difficult to obtain statistically valid results directly on nematode control from natural infestations since the levels of nematodes differ widely on a microsite level. Therefore, controlled greenhouse tests were conducted with Nemlab, a company in South Africa who specializes in nematode control testing. This trial was designed to consider mechanisms as well as direct contact control. As noted earlier, induction of systemic resistance was considered highly desirable, and would be expected given the generalized mechanisms of action described in Example 3, FIG. 8. To assess this character, tomato plants were grown for 6 weeks and then the roots were split into two, and each half root was placed into a separate pot with a single shoot. Except for water controls, 500-1000 eggs of the root knot nematode, Meloidgyne javanica were placed into each root system, but only one side, the various treatments were placed the biocontrol agents at 10^8 cfu/g soil. So, one root system of each plant contained nematodes only while the other contained nematodes plus the treatments. The treatments are shown below; there were six replicates per treatment. […] The experiment was designed to evaluate the ability of each strain to directly control (pot 2) and to control at-a-distance, the nematodes. […] There were a number of evaluations made of the plants at the end of the experiment, and the most important are shown below in Table 4 ([…] Index). Root galling is an index of the formation of 'knots' on roots that give root knot nematode its name and is an index of the root damage. The galls are the areas where the nematode is infesting the root and laying its eggs. The scale=0, no galls, 1, visible galling, 2, 25% of roots with galls, 3, 50% of roots with galls, 4, 75%, and 5, 100%.

maize = assay: ABM trials and field testing of commercial products and strains on corn; format: in vivo
plant growth = assay: Applicant's observation of plant growth induction by 1-octen-3-ol; format: in vivo; conditions: very low concentrations
soybean = assay: Greenhouse soybean in sand tubes, seed treatment; format: in vivo; conditions: stem length, Spad, root weight, root volume; FIG. 4; significant at alpha=0.05 or 0.01
Description: Trichoderma strain K5 increases growth in soybean in the greenhouse when applied as a seed treatment. Soybean seeds were treated with either T. virens NRRL B-5025 strain or left untreated with no other microbial or chemical treatments being applied. These were planted into sand tubes and growth data was collected as the seeds emerged and the seedlings grew. […] All of the differences shown in FIG. 4 are significant at alpha=0.05 or 0.01.

wheat = assay: Greenhouse wheat seedlings, foliar spray; format: in vivo; conditions: foliar spray vs water only; FIG. 3
Description: Trichoderma strain K5 increases growth in greenhouse grown wheat when applied as a foliar treatment. […] Control plants were sprayed with water only.

corn = assay: Corn trials in the greenhouse, seed treatment; format: in vivo; conditions: FIG. 2
Description: Corn trials in the greenhouse. […] The growth differences are clearly evident.

corn (Zea mays) = assay: Corn field trial ABM14 (1st field trial), seed treatments; format: in vivo; conditions: both ABM14 and ABM15 studies
[3] = tested on: plant parasitic nematodes; assay: Field trials with sunflowers in South Africa, root galling; format: in vivo; conditions: sunflower, naturally infested field, FIG. 12
Description: Field trials with sunflowers in the field in South Africa. Trials were conducted in the Republic of South Africa. Sunflower seeds were treated with various microorganisms and planted into soil infested with plant parasitic nematodes. After the plants were mature, roots were harvested and rated for root galling caused by the nematodes. The variability was quite large in this naturally infested field.

nematodes = assay: Field trial in Iowa in a field heavily infested with nematodes: yields; conditions: Iowa nematode-infested field

Compound	conclusion from the combined two experiments [1]	duration of white fly control (White flies)	overall effectiveness in nematode control [2]	Number of Eggs/Root System, Pot 1—nem. alone (of split root system) [2]	Numbers of female nematodes/root, Pot 1—nem. alone (of split root system) [2]	Galling Index, Pot 1—nem. alone (of split root system) [2]	Number of Eggs/Root System, Pot 2—agent + nematode (of split root system) [2]	Numbers of female nematodes/root, Pot 2—agent + nematode (of split root system) [2]	Galling Index, Pot 2—agent + nematode (of split root system) [2]	impact on corn in field testing (maize)	induction of plant growth (plant growth)	soybean seedling growth (soybean)	growth of wheat seedlings (wheat)	growth of corn plants (corn)	grain yields (corn (Zea mays))	root galling index [3]	yield performance (nematodes)
Bacillus amyloliquifaciens [Bacillus AS2]	highly effective	effects continued at least three weeks	nearly as good an effect	2481	14.67	2.3	970	8.16	2.0	–	–	–	–	–	–	–	–
T. virens strain ATCC 20906 [Trichoderma K1]	highly effective	effects continued at least three weeks	–	45631	25.17	3.33	48765	35.7	3.17	negative impact on corn	–	–	–	–	–	–	–
C=CC(O)CCCCC (stereo not shown) [1-octen-3-ol]	–	–	–	–	–	–	–	–	–	–	potent inducer of enhanced plant growth	–	–	–	–	–	–
Trichoderma gamsii (NRRL B-50520) [Trichoderma K5]	highly effective	effects continued at least three weeks	most effective treatment	1298	4.0	1.3	493	8.5	2.17	–	–	significantly increase soybean seedling growth	clearly larger and more vigorous; also recorded: significant growth increase	improved growth and development	largest grain yields	lowest numerical galling index of the biological treatments	excellent performance
